ChEMBL document CHEMBL1158272, “Novel antiplatelet constituents from formosan moraceous plants” (J Nat Prod, 1996)
Converted amounts (≈) assume the structure as drawn.

What was measured:
[1] = Antiplatelet activity against rabbit platelets assessed as arachidonic acid-induced platelet aggregation at 100 uM by turbidimetric method; assay type: functional, Oryctolagus cuniculus
[2] = Antiplatelet activity against rabbit platelets assessed as collagen-induced platelet aggregation at 100 uM by turbidimetric method; assay type: functional, Oryctolagus cuniculus
[3] = Antiplatelet activity against rabbit platelets assessed as platelet-activating facto-induced platelet aggregation at 100 uM by turbidimetric method; assay type: functional, Oryctolagus cuniculus
[4] = Antiplatelet activity against rabbit platelets assessed as thrombin-induced platelet aggregation at 100 uM by turbidimetric method; assay type: functional, Oryctolagus cuniculus
[5] = Antiplatelet activity against rabbit platelets assessed as arachidonic acid-induced platelet aggregation by turbidimetric method; assay type: functional, cell-based; conditions: Oryctolagus cuniculus
[6] = Antiplatelet activity against rabbit platelets assessed as collagen-induced platelet aggregation by turbidimetric method; assay type: functional, cell-based; conditions: Oryctolagus cuniculus
[7] = Antiplatelet activity against human platelets in platelet rich plasma assessed as adrenaline-induced platelet aggregation at 150 uM pretreated 3 mins before adrenaline challenge by turbidimetric method; assay type: functional
[8] = Antiplatelet activity against human platelets in platelet rich plasma assessed as adrenaline-induced platelet aggregation at 100 uM pretreated 3 mins before adrenaline challenge by turbidimetric method; assay type: functional
[9] = Inhibition of ram seminal vesicle cyclooxygenase pretreated 2 mins before arachidonate substrate addition; assay type: tissue-based, Ovis aries
[10] = Antiplatelet activity against rabbit platelets assessed as arachidonic acid-induced platelet aggregation at 300 uM by turbidimetric method; assay type: functional, Oryctolagus cuniculus
[11] = Antiplatelet activity against rabbit platelets assessed as collagen-induced platelet aggregation at 300 uM by turbidimetric method; assay type: functional, Oryctolagus cuniculus
[12] = Antiplatelet activity against rabbit platelets assessed as platelet-activating facto-induced platelet aggregation at 300 uM by turbidimetric method; assay type: functional, Oryctolagus cuniculus
[13] = Antiplatelet activity against rabbit platelets assessed as thrombin-induced platelet aggregation at 300 uM by turbidimetric method; assay type: functional, Oryctolagus cuniculus
[14] = Antiplatelet activity against human platelets in platelet rich plasma assessed as adrenaline-induced platelet aggregation at 300 uM pretreated 3 mins before adrenaline challenge by turbidimetric method; assay type: functional
[15] = Antiplatelet activity against rabbit platelets assessed as arachidonic acid-induced platelet aggregation at 20 uM by turbidimetric method; assay type: functional, Oryctolagus cuniculus
[16] = Antiplatelet activity against rabbit platelets assessed as collagen-induced platelet aggregation at 20 uM by turbidimetric method; assay type: functional, Oryctolagus cuniculus
[17] = Antiplatelet activity against rabbit platelets assessed as platelet-activating facto-induced platelet aggregation at 20 uM by turbidimetric method; assay type: functional, Oryctolagus cuniculus
[18] = Antiplatelet activity against rabbit platelets assessed as thrombin-induced platelet aggregation at 20 uM by turbidimetric method; assay type: functional, Oryctolagus cuniculus
[19] = Antiplatelet activity against human platelets in platelet rich plasma assessed as adrenaline-induced platelet aggregation at 50 uM pretreated 3 mins before adrenaline challenge by turbidimetric method; assay type: functional
[20] = Antiplatelet activity against rabbit platelets assessed as arachidonic acid-induced platelet aggregation at 50 uM by turbidimetric method; assay type: functional, Oryctolagus cuniculus
[21] = Antiplatelet activity against rabbit platelets assessed as collagen-induced platelet aggregation at 50 uM by turbidimetric method; assay type: functional, Oryctolagus cuniculus
[22] = Antiplatelet activity against rabbit platelets assessed as platelet-activating facto-induced platelet aggregation at 50 uM by turbidimetric method; assay type: functional, Oryctolagus cuniculus
[23] = Antiplatelet activity against rabbit platelets assessed as thrombin-induced platelet aggregation at 50 uM by turbidimetric method; assay type: functional, Oryctolagus cuniculus
[24] = Antiplatelet activity against rabbit platelets assessed as arachidonic acid-induced platelet aggregation at <100 uM by turbidimetric method; assay type: functional, Oryctolagus cuniculus
[25] = Antiplatelet activity against rabbit platelets assessed as collagen-induced platelet aggregation at <100 uM by turbidimetric method; assay type: functional, Oryctolagus cuniculus
[26] = Antiplatelet activity against rabbit platelets assessed as platelet-activating facto-induced platelet aggregation at <100 uM by turbidimetric method; assay type: functional, Oryctolagus cuniculus
[27] = Antiplatelet activity against rabbit platelets assessed as thrombin-induced platelet aggregation at <100 uM by turbidimetric method; assay type: functional, Oryctolagus cuniculus
[28] = Antiplatelet activity against human platelets in platelet rich plasma assessed as adrenaline-induced platelet aggregation at 450 uM pretreated 3 mins before adrenaline challenge by turbidimetric method; assay type: functional
[29] = Antiplatelet activity against rabbit platelets assessed as collagen-induced platelet aggregation at 60 uM by turbidimetric method; assay type: functional, Oryctolagus cuniculus
[30] = Antiplatelet activity against rabbit platelets assessed as platelet-activating facto-induced platelet aggregation at 60 uM by turbidimetric method; assay type: functional, Oryctolagus cuniculus
[31] = Antiplatelet activity against rabbit platelets assessed as arachidonic acid-induced platelet aggregation at 15 uM by turbidimetric method; assay type: functional, Oryctolagus cuniculus
[32] = Antiplatelet activity against rabbit platelets assessed as collagen-induced platelet aggregation at 15 uM by turbidimetric method; assay type: functional, Oryctolagus cuniculus
[33] = Antiplatelet activity against rabbit platelets assessed as platelet-activating facto-induced platelet aggregation by turbidimetric method; assay type: functional, cell-based; conditions: Oryctolagus cuniculus
[34] = Antiplatelet activity against rabbit platelets assessed as arachidonic acid-induced platelet aggregation at 30 uM by turbidimetric method; assay type: functional, Oryctolagus cuniculus
[35] = Antiplatelet activity against rabbit platelets assessed as collagen-induced platelet aggregation at 30 uM by turbidimetric method; assay type: functional, Oryctolagus cuniculus
[36] = Antiplatelet activity against rabbit platelets assessed as platelet-activating facto-induced platelet aggregation at 30 uM by turbidimetric method; assay type: functional, Oryctolagus cuniculus

## CC(C)=CCc1c(-c2cc(O)c(O)cc2O)oc2c(CC=C(C)C)c3c(c(O)c2c1=O)C=CC(C)(C)O3 [HETEROPHYLLIN]
[1]
  Activity: 0%
[2]
  Activity: 0%
[3]
  Activity: 32%
[4]
  Activity: 80.2%
[5]
  IC50: 49.8 µM
[6]
  IC50: 48.7 µM

## CC(C)=CCc1c2c(c(O)c3c(=O)c4c(oc13)-c1cc(O)c(O)cc1OC4C=C(C)C)C=CC(C)(C)O2 (stereo unspecified) [CYCLOHETERPHYLLIN]
[7]
  Activity: 55.1%
[8]
  Activity: 61.6%
[9]
  IC50: 26.1 µg/mL (≈ 51.9 µM)
[10]
  Activity: 0%
[11]
  Activity: 33.8%
[12]
  Activity: 4.5%
[13]
  Activity: 82.4%
[5]
  IC50: 10.9 µM
[14]
  Activity: 35.5%

## COc1cc(O)c2c(c1)O[C@H](c1ccc(O)cc1O)CC2=O [ARTOCARPANONE]
[10]
  Activity: 0%
[11]
  Activity: 1.1%
[12]
  Activity: 38.6%
[13]
  Activity: 90.2%
[5]
  IC50: 41 µM
[6]
  IC50: 90.7 µM

## COc1cc2oc(-c3ccc(O)cc3O)c(CC=C(C)C)c(=O)c2c(O)c1/C=C/C(C)C [ARTOCARPIN]
[15]
  Activity: 54.8%
[16]
  Activity: 84%
[17]
  Activity: 76%
[18]
  Activity: 87.3%

## CC(=O)Oc1ccccc1C(=O)O [ASPIRIN]
[19]
  Activity: 39.6%
[20]
  Activity: 0%
[21]
  Activity: 85.4%
[22]
  Activity: 90.5%
[23]
  Activity: 91.9%

## CC(C)=CCc1c(-c2oc3c(CC=C(C)C)c(O)cc(O)c3c(=O)c2O)cc(O)c(O)c1CC=C(C)C [BROUSSOFLAVONOL E]
[1]
  Activity: 0%
[2]
  Activity: 0%
[3]
  Activity: 86.4%
[4]
  Activity: 91.8%
[5]
  IC50: 39.9 µM

## CC(=O)Oc1cc2c(cc1OC(C)=O)-c1oc3c(CC=C(C)C)c4c(c(OC(C)=O)c3c(=O)c1C(C=C(C)C)O2)C=CC(C)(C)O4 (stereo unspecified) [CYCLOHETERPHYLLIN PERACETATE]
[24]
  Activity: 74%
[25]
  Activity: 73%
[26]
  Activity: 78.3%
[27]
  Activity: 91%

## COc1cc(O)c2c(=O)cc(-c3ccc(O)cc3O)oc2c1 [ARTOCARPETIN]
[10]
  Activity: 0%
[11]
  Activity: 73.8%
[12]
  Activity: 85.7%
[13]
  Activity: 88.2%
[5]
  IC50: 95.9 µM

## COc1cc(O)c2c(c1)O[C@H](c1c(OC)cc(OC)cc1OC)CC2=O
[10]
  Activity: 27.9%
[11]
  Activity: 66.1%
[12]
  Activity: 81%
[13]
  Activity: 83.1%

## CC(C)=CCc1cc2c(cc1O)O/C(=C\c1ccc(O)c(O)c1)C2=O [BROUSSOAURONE A]
[9]
  IC50: 22.7 µg/mL (≈ 67.1 µM)
[10]
  Activity: 0%
[11]
  Activity: 0%
[12]
  Activity: 89.5%
[13]
  Activity: 93.7%
[5]
  IC50: 15.4 µM

## COc1cc(O)c2c(=O)cc(-c3ccc(O)cc3O)oc2c1CC=C(C)C [ARTOCARPETIN A]
[10]
  Activity: 61.8%
[11]
  Activity: 46.8%
[12]
  Activity: 59.8%
[13]
  Activity: 80.4%

## CC(C)=CCc1cc(C(=O)/C=C/c2ccc(O)c(O)c2)c(O)cc1O [BROUSSOCHALCONE A]
[28]
  Activity: 40.1%
[9]
  IC50: 19.4 µg/mL (≈ 57 µM)
[29]
  Activity: 0%
[30]
  Activity: 67.8%
[31]
  Activity: 0%
[32]
  Activity: 55.1%
[5]
  IC50: 6.8 µM
[6]
  IC50: 22.4 µM
[33]
  IC50: 119 µM
[14]
  Activity: 74%

## COc1ccc2c(c1)c(CC(=O)O)c(C)n2C(=O)c1ccc(Cl)cc1 [INDOMETHACIN]
[9]
  IC50: 0.7 µg/mL (≈ 1.96 µM)

## CC(C)=CCc1cc([C@@H]2CCc3ccc(O)cc3O2)c(CC=C(C)C)c(O)c1O [KAZINOL A]
[34]
  Activity: 0%
[35]
  Activity: 0%
[36]
  Activity: 65.8%
[5]
  IC50: 11.4 µM
[6]
  IC50: 20.7 µM
[33]
  IC50: 54.6 µM

## CC(C)=CCc1c([C@@H]2CCc3ccc(O)cc3O2)cc2c(c1O)OC(C)(C)C=C2 [KAZINOL B]
[7]
  Activity: 27.6%
[8]
  Activity: 27.9%
[9]
  IC50: 155.3 µg/mL (≈ 396 µM)
[20]
  Activity: 0%
[21]
  Activity: 4%
[22]
  Activity: 42.6%
[23]
  Activity: 79.8%
[5]
  IC50: 32.6 µM
[14]
  Activity: 23.1%

## CC(=O)Oc1cc(O)c(C(=O)/C=C/c2ccc(OC(C)=O)c(OC(C)=O)c2)cc1CC=C(C)C [BROUSSOCHALCONE TRIACETATE]
[10]
  Activity: 9.3%
[11]
  Activity: 23.1%
[12]
  Activity: 0%
[13]
  Activity: 88.4%
[1]
  Activity: 9.6%
[3]
  Activity: 82.1%
[5]
  IC50: 91.7 µM

## COc1cc(OC)c([C@@H]2CC(=O)c3c(O)cc(OC)c(CC=C(C)C)c3O2)c(OC)c1
[10]
  Activity: 81.5%
[11]
  Activity: 68.9%
[12]
  Activity: 84.5%
[13]
  Activity: 85.7%

## CC(C)=CCc1cc(-c2oc3c(CC=C(C)C)c(O)cc(O)c3c(=O)c2O)ccc1O [BROUSSOFLAVONOL F]
[9]
  IC50: 17.5 µg/mL (≈ 41.4 µM)
[1]
  Activity: 0%
[2]
  Activity: 0%
[3]
  Activity: 84.8%
[4]
  Activity: 93.1%
[5]
  IC50: 16.9 µM

## CC(C)=CCc1c([C@@H]2CCc3ccc(O)cc3O2)cc2c(c1O)OC(C)(C)C(O)C2O (stereo partly specified) [BROUSSOFLAVAN A]
[10]
  Activity: 0%
[11]
  Activity: 0%
[12]
  Activity: 87.9%
[13]
  Activity: 92%
[5]
  IC50: 86.7 µM

## COc1ccc2c(c1)OC(C=C(C)C)c1c-2oc2cc(O)c(/C=C/C(C)C)c(O)c2c1=O (stereo unspecified) [CYCLOARTOCARPIN A]
[15]
  Activity: 39.5%
[16]
  Activity: 60.9%
[17]
  Activity: 86.5%
[18]
  Activity: 89.9%
[5]
  IC50: 18.5 µM
[6]
  IC50: 23.7 µM

## CC(=O)Oc1cc2c(cc1OC(C)=O)-c1oc3c(CC=C(C)C)c4c(c(O)c3c(=O)c1C(C=C(C)C)O2)C=CC(C)(C)O4 (stereo unspecified) [CYCLOHETERPHYLLIN DIACETATE]
[24]
  Activity: 83.4%
[25]
  Activity: 4.9%
[26]
  Activity: 86%
[27]
  Activity: 91.3%
